Assay results: patent US10597388B2, “Pyridazinone herbicides” (FMC CORPORATION, priority 2014, dated 2020)

How the values were obtained:
Assay type in all cases: in vivo
kochia (Kochia scoparia) = test: Test C greenhouse herbicide test, postemergence
Outline: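 Steps: pot plants in peat-based medium; spray postemergence at 1- to 4-leaf stage; hold in greenhouse 13 to 15 d; score visually against controls from 0 (no effect) to 100 (complete control).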

corn (Zea mays) = test: Test C greenhouse herbicide test, pre- and postemergence
Outline: (§1)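 Percent-control ratings (0 none, 100 complete) came from visual comparison with controls held alongside in the greenhouse for 13–15 d. Treatments covered soil application at sowing and foliar application to young plants 2–18 cm tall.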

[1] = tested on: wheat (winter wheat, Triticum aestivum); test: as above
Outline: as §1

[2] = tested on: blackgrass (Alopecurus myosuroides); test: as above
Outline: as §1

[3] = tested on: foxtail, giant (giant foxtail, Setaria faberii); test: as above
Outline: as §1

[4] = tested on: ragweed (common ragweed, Ambrosia elatior); test: as above
Outline: as §1

[5] = tested on: lambsquarters (Chenopodium album); test: as above
Outline: as §1

soybean (Glycine max) = test: as above
Outline: as §1

[6] = tested on: ryegrass, Italian (Italian ryegrass, Lolium multiflorum); test: as above
Outline: as §1

[7] = tested on: oilseed rape (Brassica napus); test: as above
Outline: as §1

[8] = tested on: waterhemp (common waterhemp, Amaranthus rudis); test: as above
Outline: as §1

[9] = tested on: morningglory (Ipomoea coccinea); test: as above
Outline: as §1

[10] = tested on: johnsongrass (Sorghum halepense); test: as above
Outline: as §1

[11] = tested on: nutsedge, yellow (yellow nutsedge, Cyperus esculentus); test: as above
Outline: as §1

[12] = tested on: pigweed (Amaranthus retroflexus); test: as above
Outline: as §1

[13] = tested on: crabgrass, large (large crabgrass, Digitaria sanguinalis); test: as above
Outline: as §1

[14] = Postemergence, 31 g ai/ha, scale 0 to 100 (0 no effect, 100 complete control)
[15] = Postemergence, 62 g ai/ha, 0 to 100 scale (0 no effect, 100 complete control)
[16] = Postemergence, 250 g ai/ha, scale 0 to 100, 0 no effect, 100 complete control, 13 to 15 d
[17] = postemergence, 125 g ai/ha, scale 0 to 100, 0 no effect, 100 complete control
[18] = Preemergence, 31 g ai/ha, scale 0 to 100, 0 is no effect, 100 is complete control
[19] = Preemergence, 62 g ai/ha, scale 0 to 100, 0 is no effect, 100 is complete control
[20] = Preemergence, 125 g ai/ha, scale 0 to 100, 0 is no effect, 100 is complete control
[21] = Preemergence, 250 g ai/ha, scale 0 to 100 (0 no effect, 100 complete control)
[22] = Postemergence, 31 g ai/ha, 0 to 100 scale (0 no effect, 100 complete control)
[23] = Postemergence, 125 g ai/ha, scale 0 to 100, 0 is no effect, 100 is complete control
[24] = postemergence, 62 g ai/ha, scale 0 to 100, 0 no effect, 100 complete control

CCC(=O)Oc1c(C)nn(C)c(=O)c1-c1ccc(Br)c2ccccc12 [Compound 133]
75: Plant response rating, Foxtail, Giant [3, 20] | Plant response rating, Ragweed [4, 19] | Soybean plant response rating (soybean (Glycine max); [17]) | Plant response rating, Nutsedge, Yellow [11, 14]
98: Plant response rating, Kochia (kochia (Kochia scoparia); [14]) | Ragweed plant response rating [4, 21] | Lambsquarters plant response rating [5, 15] | Oilseed Rape plant response rating [7, 15] | Plant response rating, Oilseed Rape [7, 16] | Oilseed Rape plant response rating [7, 17] | Plant response rating, Nutsedge, Yellow [11, 16] | Pigweed plant response rating [12, 15]
20: Johnsongrass plant response rating [10, 17] | Plant response rating, Nutsedge, Yellow [11, 18] | Plant response rating, Crabgrass, Large [13, 16]
50: Plant response rating, Blackgrass [2, 20] | Blackgrass plant response rating [2, 21]
95: Plant response rating, Ragweed [4, 20] | Plant response rating, Lambsquarters [5, 14] | Plant response rating, Lambsquarters [5, 20] | Lambsquarters plant response rating [5, 21] | Plant response rating, Ryegrass, Italian [6, 19] | Plant response rating, Oilseed Rape [7, 14] | Plant response rating, Waterhemp [8, 14] | Plant response rating, Waterhemp [8, 20] | Plant response rating, Morningglory [9, 16] | Morningglory plant response rating [9, 21] | Nutsedge, Yellow plant response rating [11, 21] | Nutsedge, Yellow plant response rating [11, 17] | Plant response rating, Pigweed [12, 16]
65: Plant response rating, Foxtail, Giant [3, 19] | Plant response rating, Soybean (soybean (Glycine max); [20]) | Crabgrass, Large plant response rating [13, 21]
5: Plant response rating, Corn (corn (Zea mays); [14]) | Corn plant response rating (corn (Zea mays); [15]) | Plant response rating, Corn (corn (Zea mays); [16]) | Plant response rating, Corn (corn (Zea mays); [18]) | Plant response rating, Corn (corn (Zea mays); [19]) | Corn plant response rating (corn (Zea mays); [17]) | Plant response rating, Ragweed [4, 16] | Ragweed plant response rating [4, 17] | Plant response rating, Soybean (soybean (Glycine max); [18]) | Plant response rating, Ryegrass, Italian [6, 14] | Plant response rating, Ryegrass, Italian [6, 16] | Plant response rating, Oilseed Rape [7, 18] | Plant response rating, Johnsongrass [10, 14] | Plant response rating, Johnsongrass [10, 18] | Crabgrass, Large plant response rating [13, 15] | Crabgrass, Large plant response rating [13, 17]
0: Plant response rating, Wheat [1, 18] | Plant response rating, Wheat [1, 19] | Plant response rating, Ragweed [4, 14] | Ragweed plant response rating [4, 15] | Plant response rating, Crabgrass, Large [13, 14] | Plant response rating, Crabgrass, Large [13, 18]
45: Plant response rating, Blackgrass [2, 14] | Plant response rating, Morningglory [9, 18]
25: Plant response rating, Wheat [1, 14] | Plant response rating, Foxtail, Giant [3, 14] | Foxtail, Giant plant response rating [3, 15]
10: Plant response rating, Corn (corn (Zea mays); [20]) | Corn plant response rating (corn (Zea mays); [21]) | Plant response rating, Wheat [1, 20] | Ryegrass, Italian plant response rating [6, 15] | Johnsongrass plant response rating [10, 15] | Plant response rating, Johnsongrass [10, 16]
60: Plant response rating, Blackgrass [2, 19]
80: Plant response rating, Wheat [1, 16] | Soybean plant response rating (soybean (Glycine max); [21]) | Plant response rating, Waterhemp [8, 18] | Plant response rating, Pigweed [12, 14]
35: Wheat plant response rating [1, 15] | Blackgrass plant response rating [2, 15] | Ryegrass, Italian plant response rating [6, 17] | Plant response rating, Johnsongrass [10, 19] | Plant response rating, Crabgrass, Large [13, 20]
100: Kochia plant response rating (kochia (Kochia scoparia); [15]) | Plant response rating, Kochia (kochia (Kochia scoparia); [16]) | Kochia plant response rating (kochia (Kochia scoparia); [17]) | Plant response rating, Lambsquarters [5, 16] | Lambsquarters plant response rating [5, 17] | Plant response rating, Ryegrass, Italian [6, 20] | Ryegrass, Italian plant response rating [6, 21] | Waterhemp plant response rating [8, 15] | Plant response rating, Waterhemp [8, 16] | Plant response rating, Waterhemp [8, 19] | Waterhemp plant response rating [8, 21] | Waterhemp plant response rating [8, 17] | Plant response rating, Morningglory [9, 14] | Morningglory plant response rating [9, 15] | Morningglory plant response rating [9, 17] | Plant response rating, Pigweed [12, 18] | Plant response rating, Pigweed [12, 19] | Plant response rating, Pigweed [12, 20] | Pigweed plant response rating [12, 21] | Pigweed plant response rating [12, 17]
85: Plant response rating, Oilseed Rape [7, 19] | Plant response rating, Morningglory [9, 19]
70: Blackgrass plant response rating [2, 17] | Plant response rating, Ragweed [4, 18] | Plant response rating, Nutsedge, Yellow [11, 20]
55: Wheat plant response rating [1, 17] | Plant response rating, Foxtail, Giant [3, 16] | Plant response rating, Soybean (soybean (Glycine max); [14]) | Plant response rating, Soybean (soybean (Glycine max); [19]) | Plant response rating, Nutsedge, Yellow [11, 19]
90: Foxtail, Giant plant response rating [3, 21] | Plant response rating, Lambsquarters [5, 18] | Plant response rating, Lambsquarters [5, 19] | Plant response rating, Ryegrass, Italian [6, 18] | Plant response rating, Oilseed Rape [7, 20] | Oilseed Rape plant response rating [7, 21] | Plant response rating, Morningglory [9, 20] | Nutsedge, Yellow plant response rating [11, 15]
40: Wheat plant response rating [1, 21] | Foxtail, Giant plant response rating [3, 17] | Soybean plant response rating (soybean (Glycine max); [15]) | Plant response rating, Soybean (soybean (Glycine max); [16]) | Johnsongrass plant response rating [10, 21]
30: Plant response rating, Blackgrass [2, 16] | Plant response rating, Blackgrass [2, 18] | Plant response rating, Foxtail, Giant [3, 18] | Plant response rating, Johnsongrass [10, 20] | Plant response rating, Crabgrass, Large [13, 19]

COc1nn(C)c(=O)c(-c2c(C)sc3ccccc23)c1O [Compound 33]
55: Oilseed Rape plant response rating [7, 24]
85: Ragweed plant response rating [4, 22] | Morningglory plant response rating [9, 22]
40: Plant response rating, Kochia (kochia (Kochia scoparia); [23]) | Foxtail, Giant plant response rating [3, 24] | Oilseed Rape plant response rating [7, 22] | Plant response rating, Johnsongrass [10, 16]
45: Ryegrass, Italian plant response rating [6, 24] | Plant response rating, Nutsedge, Yellow [11, 23]
30: Ryegrass, Italian plant response rating [6, 22] | Plant response rating, Oilseed Rape [7, 23] | Waterhemp plant response rating [8, 24] | Pigweed plant response rating [12, 22]
75: Plant response rating, Ryegrass, Italian [6, 16] | Plant response rating, Waterhemp [8, 16]
15: Nutsedge, Yellow plant response rating [11, 24]
70: Plant response rating, Foxtail, Giant [3, 16] | Plant response rating, Ryegrass, Italian [6, 23]
95: Ragweed plant response rating [4, 24] | Lambsquarters plant response rating [5, 24] | Plant response rating, Morningglory [9, 23] | Morningglory plant response rating [9, 24]
80: Plant response rating, Pigweed [12, 16]
50: Plant response rating, Kochia (kochia (Kochia scoparia); [16]) | Plant response rating, Oilseed Rape [7, 16] | Pigweed plant response rating [12, 24]
100: Plant response rating, Lambsquarters [5, 16]
5: Kochia plant response rating (kochia (Kochia scoparia); [24]) | Plant response rating, Corn (corn (Zea mays); [23]) | Corn plant response rating (corn (Zea mays); [24]) | Plant response rating, Blackgrass [2, 23] | Plant response rating, Johnsongrass [10, 23] | Johnsongrass plant response rating [10, 24] | Nutsedge, Yellow plant response rating [11, 22]
0: Corn plant response rating (corn (Zea mays); [22]) | Wheat plant response rating [1, 22] | Plant response rating, Wheat [1, 23] | Plant response rating, Wheat [1, 16] | Wheat plant response rating [1, 24] | Blackgrass plant response rating [2, 22] | Blackgrass plant response rating [2, 24] | Soybean plant response rating (soybean (Glycine max); [22]) | Plant response rating, Soybean (soybean (Glycine max); [23]) | Plant response rating, Soybean (soybean (Glycine max); [16]) | Soybean plant response rating (soybean (Glycine max); [24]) | Johnsongrass plant response rating [10, 22]
90: Plant response rating, Ragweed [4, 23] | Lambsquarters plant response rating [5, 22]
98: Plant response rating, Ragweed [4, 16] | Plant response rating, Lambsquarters [5, 23] | Plant response rating, Morningglory [9, 16]
60: Plant response rating, Foxtail, Giant [3, 23]
25: Waterhemp plant response rating [8, 22] | Plant response rating, Crabgrass, Large [13, 16]
20: Kochia plant response rating (kochia (Kochia scoparia); [22]) | Plant response rating, Corn (corn (Zea mays); [16]) | Foxtail, Giant plant response rating [3, 22] | Plant response rating, Crabgrass, Large [13, 23] | Crabgrass, Large plant response rating [13, 24]
10: Plant response rating, Blackgrass [2, 16] | Crabgrass, Large plant response rating [13, 22]
65: Plant response rating, Waterhemp [8, 23] | Plant response rating, Nutsedge, Yellow [11, 16] | Plant response rating, Pigweed [12, 23]
